A short description of the data set: Franz diffusion cell skin penetration assay. The format is in vitro ADME, human. As to conditions: for pal-KT Skin Penetration: Surface Residual / pal-KT Skin Penetration: Dermis / pal-KT Skin Penetration: Epidermis / pal-KT Skin Penetration: Total Penetration / pal-KT Skin Penetration: Receptor: pal-KT 5 ppm; for pal-KT Skin Penetration: Surface Residual: 14C-spiked, 24 h after topical dose on human skin; for pal-KT Skin Penetration: Total Penetration: epidermis+dermis+receptor; for pal-KT Skin Penetration: Receptor: receptor solution (transdermal). As to the method: The method is described. […] (40 ppm) is assessed using the Franz diffusion cell assay (4, T. J. Franz, J. Invest. Dermatol. 64: 190-195, 1975; T. J. Franz, et al., Skin Pharmacol. Physiol. 22: 276-286, 2009). The peptides are formulated in a skin care silicone-in-water (SWF) formulation with or without 10 wt % SACRAN. The formulations are spiked with ^14C-pal-KT or ^3H-PKEK. Twenty-four hours after topically dosed on human skin, residual product is removed from the skin surface, the epidermal and dermal layers were separated, and receptor solutions (transdermal) are collected.

The mark [1] stands for this setting: SWF + 10 wt % SACRAN versus SWF, 24 h, human skin.
[2] abbreviates: SWF formulation without SACRAN (control), 24 h.

As to `CCCCCCCCCCCCCCCC(=O)N[C@@H](CCCCN)C(=O)N[C@H](C(=O)O)[C@@H](C)O` [pal-KT, palmitoyl-lysine-threonine], under setting [1], the “amount recovered from the surface of the skin with SACRAN versus without (in words)” value is recorded as “statistically significant lower amount” and the “effect of addition of SACRAN on skin penetration (in words)” value is “increased”. Moreover, the “pal-KT Skin Penetration: Surface Residual” value (SWF + 10 wt % SACRAN) worked out at 173.2 ± 18.1 ng/cm^2. In addition, for the setting “SWF + 10 wt % SACRAN, 24 h”, the “pal-KT Skin Penetration: Dermis” value stood at 14.8 ± 1.65 ng/cm^2, the “pal-KT Skin Penetration: Epidermis” value is 128.3 ± 17.1 ng/cm^2, the “pal-KT Skin Penetration: Total Penetration” value came out at 143.3 ± 18.1 ng/cm^2 and the “pal-KT Skin Penetration: Receptor” value worked out at 0.09 ± 0.07 ng/cm^2. Also, the “increase in skin penetration by addition of SACRAN to SWF” value (SWF + SACRAN versus SWF, single topical application) turned out to be 60%. Where the note is “SWF formulation without SACRAN (control)”, the “pal-KT Skin Penetration: Surface Residual” value is reported as 228.5 ± 10.2 ng/cm^2. In addition, under setting [2], the “pal-KT Skin Penetration: Dermis” value is given as 14.3 ± 1.4 ng/cm^2, the “pal-KT Skin Penetration: Epidermis” value came to 72.5 ± 9.5 ng/cm^2, the “pal-KT Skin Penetration: Total Penetration” value was determined as 88.0 ± 10.2 ng/cm^2 and the “pal-KT Skin Penetration: Receptor” value came to 0.14 ± 0.14 ng/cm^2.

Source of the values: patent US11311475B2, “Skin care compositions containing peptide compound and aphanothece sacrum exopolysaccharide extract” (The Procter & Gamble Company, priority 2019, dated 2022).
